The source of these data is BindingDB's records for doi:10.7270/Q2TD9VTQ (Burnham Center For Chemical Genomics, 2010).

Some results are limits rather than exact numbers.

For this test, the target named is T1, Caspase-1 (Homo sapiens, UniProt P29466).
T1 sequence (P29466 whole entry): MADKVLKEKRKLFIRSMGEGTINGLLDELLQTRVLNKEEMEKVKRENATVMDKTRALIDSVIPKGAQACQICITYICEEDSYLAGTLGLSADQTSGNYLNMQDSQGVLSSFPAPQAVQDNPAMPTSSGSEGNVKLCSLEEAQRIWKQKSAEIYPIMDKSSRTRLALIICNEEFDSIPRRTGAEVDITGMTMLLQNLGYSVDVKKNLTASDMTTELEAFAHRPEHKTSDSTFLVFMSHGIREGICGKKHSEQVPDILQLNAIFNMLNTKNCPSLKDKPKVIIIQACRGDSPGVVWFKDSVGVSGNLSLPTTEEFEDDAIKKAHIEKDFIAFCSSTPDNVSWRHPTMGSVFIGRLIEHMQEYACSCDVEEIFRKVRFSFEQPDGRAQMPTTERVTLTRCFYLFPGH
Briefly: CASP1/ASC signal blockers in yeast, IC50, counter-screen for NLRP1 inhibitor project (AID 488863).
Consider `Oc1cc(Sc2nnnn2-c2ccccc2)c(O)n1-c1cccc(Cl)c1`, for which the concentration for half-maximal inhibition (IC50) (in general, the midpoint of a concentration-inhibition curve) turned out to be 5.13 µM.
In the case of `Cc1ccc(-n2c(O)cc(Sc3ccccc3C(=O)O)c2O)cc1` it was 20.6 µM.
In the case of `COc1ccccc1-n1c(O)c2c(c1O)CC(c1ccccc1)CC2` (stereo not drawn) it was over 100 µM.
